Source: patent US10265421B2, “Hyperpolarized esters as metabolic markers in MR” (BRACCO IMAGING S.P.A., priority 2013, dated 2019)
Blank lines part the entries; values can stand above or below the molecule they belong to.

How the values were obtained:
[1] = system: CE1 from pig's liver; test: Carboxyl esterase activity on different ethyl esters (1H NMR); assay type: biochemical; details: 26 μmol substrate, pH 7.5, 37° C., 60 min
Description: The experiments were performed with commercially available CE1 from pig's liver.
The ethyl esters used as substrates are: ethyl acetoacetate (EAA); ethyl acetate (EA); ethyl butyrate (EB); ethyl pyroglutamate (EPG); ethyl pyruvate (EP); diethyl succinate (DES).
Individual samples of the substrates were all made in the following way: 26 μmol was weighted in an eppendorf tube. 550 μl deuterated phosphate buffer (200 mM, pH 7.5) was added and the substrate was brought into solution by whirl mixing. The solution was transferred to a 5 mm NMR tube and inserted in the spectrometer at 37° C. A reference experiment was acquired on the substrate solution without enzyme after which 10 μl of an esterase stock solution (37 U/ml in deuterated phosphate buffer) was added in the top of the tube. The sample was mixed and returned to the spectrometer. A series of thermal 1D 1H NMR experiments were recorded every 5 min for 60 min. The data were analyzed and presented as peak intensity of the product scaled to the peak intensity of the substrate signal in the first spectrum.

[2] = system: carboxylesterase; test: In vivo 13C CSI in rat liver with implanted Morris7777 tumor
Description: 4 anesthetized Buffalo rats were injected under the hepatic capsula of the liver left lobe with one million McA-RH7777 cells suspended in 0.2 mL of Dulbecco's Modified Eagle's Medium (DMEM) medium.
The sample was dissolved in 5 ml TRIS buffer (40 mM, pH 7) added with EDTA 100 mg/I. The pH after dissolution was 7.5.
Chemical Shift Imaging (CSI) maps were acquired on a approx. 8 mm coronal slice placed in the abdominal region of the rat. The in plane field of view was set to 40×55 mm^2 and the corresponding matrix size was 14×14.

[3] = system: rat cancer cells; test: Concentration dependent metabolism of hyperpolarized substrates in rat cancer cells; assay type: cell-based; details: approx. 1, 3.5 and 10 mM, 10 million cells, maximum peak intensity
Text: In all experiments 10 million cells were used. The experimental set-up from Example 2.b was applied. Data are shown as maximum peak intensity of either substrate or metabolite signals.

[4] = DNP conversion of hyperpolarized substrates in human blood; assay type: in vitro ADME; details: 2.5 ml human blood, approx. 5 mM substrate
Description: (§1) In all experiments 2.5 ml human blood or 2.5 ml rat blood was used. […] Data are presented as area under the curve of the metabolites divided by the substrate signal in the first spectrum and multiplied by 100 to obtain the unit, DNP conversion in percentage.

[5] = DNP conversion of hyperpolarized substrates in rat blood; assay type: in vitro ADME; details: 2.5 ml rat blood, approx. 5 mM substrate
Description: as §1

[6] = system: carboxylesterase; test: General carboxylesterase activity in sonicated cancer cells (spectrophotometric, NA substrate); assay type: biochemical; details: liver cancer cells (rat and human) and prostate cancer cells; 1 mM substrate, 10 min, 30 degrees
Description: General carboxylesterase activity was determined spectrophotometrically using the carboxylesterase substrate 1-naphthyl acetate (NA) as described previously (Rudakova, 2011). Briefly, sonicated cells were incubated with 1 mM substrate in 150 mM phosphate buffer (pH 7.5), and generation of 1-naphtol was monitored at 322 nm and quantified from its extinction coefficient (2200 M−1 cm−1). The reaction is allowed to take place for 10 min at 30 degrees. […] Cells of different origin (rat hepatoma, Morris; human hepatoma, HepG2; human prostate carcinoma, PC-3; human breast carcinoma, MCF-7) were harvested and redissolved in phosphate buffer to a concentration of 10 million cells/ml. The sample composition was as follows: 923 μl phosphate buffer (150 mM pH 7.3)+77 μl NA solution (13 mM in acetone)+100 μl cells in suspension. The absorbance of the samples were compared to reference samples where acetone was added instead of substrate. The esterase activity was calculated using the extinction coefficient ε322=2200 M^−1 cm^−1.

[7] = system: carboxylesterase; test: In vivo localized dynamic 13C MRS in healthy liver and liver cancer; parameters: species or system rat; details: 0.4 mmol/kg i.v.
Description: One million McA-RH7777 cells have been suspended in 0.2 mL of Dulbecco's Modified Eagle's Medium (DMEM) and injected under the hepatic capsula of the liver left lobe of anesthetized Buffalo rats.
The sample was dissolved in 5 ml TRIS buffer (40 mM, pH 7) added with EDTA 100 mg/l. The pH after dissolution was 7.5.
A total of 8 animals were used in the study. 4 rats were implanted with the tumour (i.e. tumour group) whereas the remaining animals were used as controls (i.e. liver group) in order to have a comparison between healthy and diseased tissue on the same strain. The metabolic fate of injected ethyl [1,3-^13C2]-acetoacetate was followed by means of a localised spectroscopy sequence which allows a selective acquisition of either tumour or healthy liver tissue. Acquisition started just before injecting the hyperpolarized substrate and comprised a series of 64 time-domain points sampled at a rate of 3 s. The applied flip angle was equal to 10 degrees.

[8] = non-tumor and tumor bearing mice; cited from earlier work
[9] = system: human liver cancer cells (HepG2); test: In cell DNP conversion of hyperpolarized substrate in human liver cancer cells; assay type: cell-based; details: whole HepG2 cells, 10 million cells, 3.5 mM substrate, 37° C.
Description: (§2) To the solution was added a DMSO solution of gadolinium complex [[α1,α4,α7-tris[(phenylmethoxy)methyl]-1,4,7,10-tetraazacyclododecane-1,4,7,10-tetraacetate(4-)]gadolinate(1-)]hydrogen (1.1 mg of a 100 μmol/g solution). The concentration of radical and gadolinium were 17 mM and 2.3 mM respectively.
(§3) B) 30 μmol of solution A) was hyperpolarized. The sample was dissolved in 5 ml phosphate buffer (40 mM, pH 7.3). The pH after dissolution was 7.3.
(§4) A) 10 million cells (either rat liver cancer cells (Morris7777) or human liver cancer cells (HEP-G2)) were harvested and redissolved in […] phosphate buffer (PBS). The cells in suspension were transferred to a 10 mm NMR tube and placed with a connecting tubing in a 14.1 T magnet at 37° C.
(§5) A series of 30 degree pulses every 2 s (56 scans in total) was acquired. The acquisition was started just before injection of the hyperpolarized substrate.

[10] = system: rat liver cancer cells (Morris7777); test: In cell DNP conversion of hyperpolarized substrate in rat liver cancer cells; assay type: cell-based; details: whole Morris7777 cells, 10 million cells, 3.5 mM substrate, 37° C.
Description: as §2, §3, §4, §5
The two substrates were co-polarized without mixing the substrates. Following dissolution in 5 ml phosphate buffer (40 mM pH 7.3) with addition of 2.5 μl NaOH to neutralize the pyruvic acid (which is thus converted into the pyruvate anion form), the substrate mixture was injected into 10 million cells in suspension. The experiment was performed as described in Example 2.b. […]

[11] = anesthetized rat; cited from earlier work

SMILES: CCOC(=O)CC(C)=O [ethyl acetoacetate]
distribution of substrate signal (CSI map) ([2]; Morris hepatocellular carcinoma bearing rat, 0.4 mmol/kg i.v., 20 s acquisition): mainly observed in the tumour mass
conversion in healthy liver during acquisition ([2]; healthy liver, 20 s acquisition time): almost completely converted
change of metabolite signal with increasing substrate concentration [3]: increases almost quantitatively with increasing substrate concentration
build-up of metabolite signal in human blood [4]: no build-up of metabolite signal could be measured
build-up of metabolite signal in rat blood [5]: conversion of ethyl acetoacetate is seen
carboxyl esterase activity (capacity of cells to hydrolyse substrate) [6]: up to 95 mU/million cells
factor by which diethyl succinate is converted faster than this substrate [1]: ~2

SMILES: CCO[13C](=O)C[13C](C)=O [ethyl [1,3-^13C2]-acetoacetate]
ramping up rate of metabolite signal, healthy liver with respect to cancer tissue ([7]; localized spectroscopy): ≥ 2
uptake and conversion in liver cells in vivo ([7]; healthy and diseased liver): taken up by both healthy and diseased liver cells and converted into its hyperpolarized metabolite
conversion in vivo [8]: rapidly converted into acetoacetate
build-up of hyperpolarized acetoacetate anion from hydrolysis [9]: possible to follow the build-up of the product
build-up of hyperpolarized acetoacetate anion from hydrolysis [10]: possible to follow the build-up of the product

SMILES: CCO[13C](=O)C(C)=O [ethyl [1-^13C]-pyruvate]
uptake into brain [11]: rapid and preferential

SMILES: CC(=O)C(=O)O [[1-^13C]-pyruvate, reference compound]
change of metabolite signal with increasing substrate concentration [3]: unchanged going from 3 mM to 10 mM
build-up of metabolite signal in human blood [4]: build-up of lactate is significant
build-up of metabolite signal in rat blood [5]: build-up of lactate is significant

Second part, the molecule after the results:

factor by which diethyl succinate is converted faster than this substrate [1]: ten times faster converted
SMILES: CCOC(C)=O [ethyl acetate]

factor by which diethyl succinate is converted faster than this substrate [1]: ~2
SMILES: CCCC(=O)OCC [ethyl butyrate]

conversion (turnover) by CE1 [1]: barely detectable
SMILES: CCOC(=O)[C@@H]1CCC(=O)N1 [ethyl pyroglutamate]

conversion (turnover) by CE1 [1]: overall fastest converted substrate
SMILES: CCOC(=O)CCC(=O)OCC [diethyl succinate]

conversion (turnover) by CE1 [1]: no conversion at all could be measured
SMILES: CCOC(=O)C(C)=O [ethyl pyruvate, reference compound]

conversion (turnover) by CE1 [1]: not a substrate for CE1
SMILES: CCOC(=O)CCC(=O)O [mono-ester]
